In US9796711B2, “Substituted pyrazolo[3,4-b]pyridin-6-carboxylic acids and method of use” (AbbVie S.àr.l., priority 2015, dated 2017):
pEC50: −log10 of the molar value.

Biological target: T1, ΔF508-CFTR (Homo sapiens, UniProt P13569, DEL508-508)
T1 construct: host or cells: CFBE41o-, doxycycline-inducible
Test: CFTR cell surface levels using HRP-tagged ΔF508-CFTR expressing CFBE cells, in the presence of a co-corrector
Assay type: cell-based
Settings: HRP-tagged ΔF508-CFTR expressing CFBE cells, in the presence of 3 μM co-corrector; for pEC50: read-out: EC50
Description: Measuring CFTR Cell Surface Levels Using HRP-Tagged AF508-CFTR Expressing CFBE Cells
The HRP-tagged AF508-CFTR cell assay measures the expression of CFTR-ΔF508 at the plasma membrane. CFTR-ΔF508 has a folding defect leading to absence of protein at the plasma membrane. This assay is used to evaluate the capacity of compounds to increase the expression of CFTR-ΔF508 at the plasma membrane. The CFTR-ΔF508 is tagged with HRP (horse radish peroxidase enzyme) within the ECL4 (Extracellular loop 4) of CFTR (Phuan, P.-W. et al. Synergy-based small-molecule screen using a human lung epithelial cell line yields AF508-CFTR correctors that augment VX-809 maximal efficacy. Mol. Pharmacol. 86, 42-51 (2014)). When HRP-tagged AF508-CFTR is present at the plasma membrane, the HRP enzyme activity can be measured. The amount of CFTR-ΔF508 that can be rescued to the plasma membrane is correlated with the amount of functional enzyme that can be measured.
There are several ways to measure the capacity of compounds to rescue CFTR-ΔF508 to the plasma membrane; either compounds are evaluated on their own and the impact on plasma membrane levels is measured or compounds are evaluated in combination with a co-corrector, i.e. a compound that rescues CFTR-ΔF508 to the plasma membrane but rescue can be enhanced by addition of compounds due to a complementary mode of action.
Activity of Compounds in Combination with Co-Corrector:
For this purpose doxycycline-inducible AF508-CFTR-HRP expressing CFBE4lo-cells (obtained from Gergely Lukacs, McGill University) were maintained in MEM (Minimum Essential Medium, Gibco; 31095) supplemented with 10% fetal bovine serum (Hyclone; SV30160.03) under puromycin (3 μg/mL) and G418 selection (0.2 mg/mL). For compound testing, cells were seeded at 4000 cells/well in white 384-well plates (Greiner; 781080) in 50 μL of medium containing 0.5 μg/mL doxycycline and incubated for 68 hours at 37° C., 5% CO2. On day four, 10 μL of test compounds diluted in PBS (phosphate buffered saline) were added to the plates at a final DMSO concentration of 0.1%. In order to measure compound synergy with a co-corrector, 3 μM co-corrector (3-[(2R,4R)-4-({[1-(2,2-difluoro-1,3-benzodioxol-5-yl)cyclopropyl]carbonyl}amino)-7-methoxy-3,4-dihydro-2H-chromen-2-yl]benzoic acid) was added along with test compounds. All compound plates contained negative controls (DMSO) and positive controls (3 μM co-corrector). Cell plates were incubated at 33° C., 5% CO2 for 20 hours. On day five, the cells were washed five times with phosphate-buffered saline, and HRP activity was assayed by the addition of 50 μL/well of HRP substrate (SuperSignal™ West Pico Chemiluminescent Substrate, Thermo Scientific; 34080). After incubation for 15 minutes in the dark, the chemiluminescence was measured using a plate reader (EnVision®, Perkin Elmer). Raw data were normalized to percentage activity values using the equation: 100×(Sample−Negative control)/(Positive control−Negative Control).

T1 sequence (P13569 with tags, fused parts or gaps DEL508-508): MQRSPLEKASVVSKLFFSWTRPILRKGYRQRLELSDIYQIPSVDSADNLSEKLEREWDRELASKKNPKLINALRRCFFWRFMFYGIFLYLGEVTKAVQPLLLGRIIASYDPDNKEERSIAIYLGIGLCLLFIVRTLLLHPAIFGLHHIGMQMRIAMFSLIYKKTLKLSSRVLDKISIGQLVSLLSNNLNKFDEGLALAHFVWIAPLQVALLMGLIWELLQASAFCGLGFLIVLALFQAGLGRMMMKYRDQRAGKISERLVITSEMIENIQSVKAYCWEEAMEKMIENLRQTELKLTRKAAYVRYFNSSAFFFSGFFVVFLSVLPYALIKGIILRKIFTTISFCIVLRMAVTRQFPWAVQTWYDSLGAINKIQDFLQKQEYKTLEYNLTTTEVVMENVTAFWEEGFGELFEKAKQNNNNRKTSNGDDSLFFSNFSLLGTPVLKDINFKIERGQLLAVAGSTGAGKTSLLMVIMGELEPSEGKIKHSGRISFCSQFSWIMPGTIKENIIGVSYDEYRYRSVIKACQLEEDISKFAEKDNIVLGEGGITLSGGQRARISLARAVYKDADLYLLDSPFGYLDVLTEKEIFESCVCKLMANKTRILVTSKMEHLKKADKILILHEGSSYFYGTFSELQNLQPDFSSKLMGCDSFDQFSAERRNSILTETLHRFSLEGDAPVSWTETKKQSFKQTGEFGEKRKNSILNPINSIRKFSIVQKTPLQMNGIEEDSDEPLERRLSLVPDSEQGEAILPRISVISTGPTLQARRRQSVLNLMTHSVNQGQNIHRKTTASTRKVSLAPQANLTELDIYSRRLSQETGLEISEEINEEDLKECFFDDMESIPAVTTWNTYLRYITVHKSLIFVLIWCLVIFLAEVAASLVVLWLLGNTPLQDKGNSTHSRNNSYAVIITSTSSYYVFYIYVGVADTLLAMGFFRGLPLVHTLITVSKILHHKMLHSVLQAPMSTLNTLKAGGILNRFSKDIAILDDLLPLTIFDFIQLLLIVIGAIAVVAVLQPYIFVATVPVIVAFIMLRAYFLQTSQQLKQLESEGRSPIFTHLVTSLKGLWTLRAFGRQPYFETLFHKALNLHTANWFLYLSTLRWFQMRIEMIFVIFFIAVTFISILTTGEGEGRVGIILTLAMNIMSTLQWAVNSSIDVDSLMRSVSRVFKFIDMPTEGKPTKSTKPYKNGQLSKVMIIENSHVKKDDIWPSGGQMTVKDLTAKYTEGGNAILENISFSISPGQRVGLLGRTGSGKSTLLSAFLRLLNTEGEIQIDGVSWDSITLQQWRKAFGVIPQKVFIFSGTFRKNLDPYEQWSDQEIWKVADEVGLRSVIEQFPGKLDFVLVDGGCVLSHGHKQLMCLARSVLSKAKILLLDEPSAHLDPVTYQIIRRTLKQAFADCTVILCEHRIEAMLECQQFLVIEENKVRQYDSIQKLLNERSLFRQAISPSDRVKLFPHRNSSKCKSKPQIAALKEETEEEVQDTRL

O=C(O)c1cc(N2CC(N3CCCC3)C2)c2c(C3CCC3)nn(-c3ccccc3)c2n1 [compound 680, 3-cyclobutyl-1-phenyl-4-[3-(pyrrolidin-1-yl)azetidin-1-yl]-1H-pyrazolo[3,4-b]pyridine-6-carboxylic acid]
% Activation: 236.7%
pEC50: 5.87

CC(O)CN1CCC(N2CCN(c3cc(C(=O)O)nc4c3c(C(C)C)nn4-c3ccc(F)cc3)CC2)CC1 (stereo not shown) [compound 742, 1-(4-fluorophenyl)-4-{4-[1-(2-hydroxypropyl)piperidin-4-yl]piperazin-1-yl}-3-(propan-2-yl)-1H-pyrazolo[3,4-b]pyridine-6-carboxylic acid]
% Activation: 126.1%
pEC50: 5.30

Cc1nn(-c2ccccc2)c2nc(C(=O)O)cc(-c3ccc(N4CCOCC4)nc3)c12 [compound 50, 3-methyl-4-[6-(morpholin-4-yl)pyridin-3-yl]-1-phenyl-1H-pyrazolo[3,4-b]pyridine-6-carboxylic acid]
% Activation: 313.2%
pEC50: 5.67

O=C(O)c1cc(OCC2CCOCC2)c2c(C3CCC3)nn(-c3ccc(F)cc3)c2n1 [compound 658, 3-cyclobutyl-1-(4-fluorophenyl)-4-[(oxan-4-yl)methoxy]-1H-pyrazolo[3,4-b]pyridine-6-carboxylic acid]
% Activation: 345.9%
pEC50: 6.34

O=C(O)c1cc(N2CCC[C@@H](O)C2)c2c(C3CCC3)nn(-c3ccccc3)c2n1 [compound 706, 3-cyclobutyl-4-[(3R)-3-hydroxypiperidin-1-yl]-1-phenyl-1H-pyrazolo[3,4-b]pyridine-6-carboxylic acid]
% Activation: 284.4%
pEC50: 6.31

COCCOCC1(F)CCCN(c2cc(C(=O)O)nc3c2c(C(C)C)nn3-c2ccc(F)cc2)C1 (stereo not shown) [compound 670, 4-{3-fluoro-3-[(2-methoxyethoxy)methyl]piperidin-1-yl}-1-(4-fluorophenyl)-3-(propan-2-yl)-1H-pyrazolo[3,4-b]pyridine-6-carboxylic acid]
% Activation: 397.3%
pEC50: 6.66

O=C(O)c1cc(-c2ccc(CN3CCOCC3)cc2)c2c(OC3CCC3)nn(C3CCCCC3)c2n1 [compound 808, 3-(cyclobutyloxy)-1-cyclohexyl-4-{4-[(morpholin-4-yl)methyl]phenyl}-1H-pyrazolo[3,4-b]pyridine-6-carboxylic acid]
% Activation: 297%
pEC50: 6.58

CC(C)CN1CCC(CN(C)c2cc(C(=O)O)nc3c2c(C2CCC2)nn3-c2ccccc2)CC1 [compound 564, 3-cyclobutyl-4-(methyl{[1-(2-methylpropyl)piperidin-4-yl]methyl}amino)-1-phenyl-1H-pyrazolo[3,4-b]pyridine-6-carboxylic acid]
% Activation: 369.1%
pEC50: 5.61

CCN(C1CCN(c2cc(C(=O)O)nc3c2c(C2CCC2)nn3-c2ccccc2)CC1)C1COC1 [compound 734, 3-cyclobutyl-4-{4-[ethyl(oxetan-3-yl)amino]piperidin-1-yl}-1-phenyl-1H-pyrazolo[3,4-b]pyridine-6-carboxylic acid]
% Activation: 415%
pEC50: 6.61

CN(CC1CCOCC1)c1cc(C(=O)O)nc2c1c(C1CCC1)nn2-c1ccccc1 [compound 554, 3-cyclobutyl-4-{methyl[(oxan-4-yl)methyl]amino}-1-phenyl-1H-pyrazolo[3,4-b]pyridine-6-carboxylic acid]
% Activation: 365.83%
pEC50: 5.76

O=C(O)c1cc(N2CCC(CCN3CCOCC3)CC2)c2c(C3CCC3)nn(C3CCCCC3)c2n1 [compound 807, 3-cyclobutyl-1-cyclohexyl-4-{4-[2-(morpholin-4-yl)ethyl]piperidin-1-yl}-1H-pyrazolo[3,4-b]pyridine-6-carboxylic acid]
% Activation: 389.35%
pEC50: 7.14

O=C(O)c1cc(OC2CCCC2)c2c(C3CCC3)nn(-c3ccccc3)c2n1 [compound 597, 3-cyclobutyl-4-(cyclopentyloxy)-1-phenyl-1H-pyrazolo[3,4-b]pyridine-6-carboxylic acid]
% Activation: 342.5%
pEC50: 6.64

COC(=O)N1CCC(COc2cc(C(=O)O)nc3c2c(C(C)C)nn3-c2ccc(F)cc2)CC1 [compound 663, 1-(4-fluorophenyl)-4-{[1-(methoxycarbonyl)piperidin-4-yl]methoxy}-3-(propan-2-yl)-1H-pyrazolo[3,4-b]pyridine-6-carboxylic acid]
% Activation: 315.5%
pEC50: 7.04

Cc1nn(-c2ccccc2)c2nc(C(=O)O)cc(-c3ccc(N4CCOCC4)cc3)c12 [compound 1, 3-methyl-4-[4-(morpholin-4-yl)phenyl]-1-phenyl-1H-pyrazolo[3,4-b]pyridine-6-carboxylic acid]
% Activation: 354.48%
pEC50: 5.98

N#CCC1(O)CCN(c2cc(C(=O)O)nc3c2c(C2CCC2)nn3-c2ccccc2)CC1 [compound 665, 4-[4-(cyanomethyl)-4-hydroxypiperidin-1-yl]-3-cyclobutyl-1-phenyl-1H-pyrazolo[3,4-b]pyridine-6-carboxylic acid]
% Activation: 330.43%
pEC50: 5.73

CN(C1CCN(C2CN(c3cc(C(=O)O)nc4c3c(C3CCC3)nn4-c3ccccc3)C2)CC1)C1COC1 [compound 724, 3-cyclobutyl-4-(3-{4-[methyl(oxetan-3-yl)amino]piperidin-1-yl}azetidin-1-yl)-1-phenyl-1H-pyrazolo[3,4-b]pyridine-6-carboxylic acid]
% Activation: 208.5%
pEC50: 5.78

CC(C)c1nn(-c2ccc(F)cc2)c2nc(C(=O)O)cc(NC(=O)C3CCOCC3)c12 [compound 664, 1-(4-fluorophenyl)-4-[(oxane-4-carbonyl)amino]-3-(propan-2-yl)-1H-pyrazolo[3,4-b]pyridine-6-carboxylic acid]
% Activation: 120.6%
pEC50: < 5.00

O=C(O)c1cc(N2CCC(CN3CCOCC3)CC2)c2c(C3CCC3)nn(C3CCCCC3)c2n1 [compound 806, 3-cyclobutyl-1-cyclohexyl-4-{4-[(morpholin-4-yl)methyl]piperidin-1-yl}-1H-pyrazolo[3,4-b]pyridine-6-carboxylic acid]
% Activation: 435.5%
pEC50: 6.65

CC(C)N1CCCN(c2cc(C(=O)O)nc3c2c(C2CCC2)nn3-c2ccccc2)CC1 [compound 691, 3-cyclobutyl-1-phenyl-4-[4-(propan-2-yl)-1,4-diazepan-1-yl]-1H-pyrazolo[3,4-b]pyridine-6-carboxylic acid]
% Activation: 280.7%
pEC50: 5.30

O=C(O)c1cc(N2CCCN(C3CCCC3)CC2)c2c(C3CCC3)nn(-c3ccccc3)c2n1 [compound 705, 3-cyclobutyl-4-(4-cyclopentyl-1,4-diazepan-1-yl)-1-phenyl-1H-pyrazolo[3,4-b]pyridine-6-carboxylic acid]
% Activation: 249.8%
pEC50: 5.78

O=C(O)c1cc(N2CCC(C3CCN(C4COC4)CC3)CC2)c2c(C3CCC3)nn(-c3ccccc3)c2n1 [compound 736, 3-cyclobutyl-4-[1′-(oxetan-3-yl)[4,4′-bipiperidin]-1-yl]-1-phenyl-1H-pyrazolo[3,4-b]pyridine-6-carboxylic acid]
% Activation: 511.6%
pEC50: 7.37

CC(C)c1nn(-c2ccc(F)cc2)c2nc(C(=O)O)cc(N3CCC(OCCN4CCCCC4)CC3)c12 [compound 762, 1-(4-fluorophenyl)-4-{4-[2-(piperidin-1-yl)ethoxy]piperidin-1-yl}-3-(propan-2-yl)-1H-pyrazolo[3,4-b]pyridine-6-carboxylic acid]
% Activation: 442.6%
pEC50: 6.34

CC(C)c1nn(-c2ccc(F)cc2)c2nc(C(=O)O)cc(N3CC(N4CCC(N5CCOCC5)CC4)C3)c12 [compound 759, 1-(4-fluorophenyl)-4-{3-[4-(morpholin-4-yl)piperidin-1-yl]azetidin-1-yl}-3-(propan-2-yl)-1H-pyrazolo[3,4-b]pyridine-6-carboxylic acid]
% Activation: 207%
pEC50: 5.78
